ChEMBL document CHEMBL1201862, “PubChem BioAssay data set” (2004)
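Growth conditions: 96-well plates. Treatment: test compound, 48 hours, 5 concentrations. Analysis: linear interpolation between bracketing concentrations; unreached endpoints set to highest concentration. Abbreviation: GI50, concentration required for 50% inhibition of growth.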 The source made the active and inactive calls. Rule as the data show it: active = GI50 up to about 1.1 µM and inactive = higher.

Columns and labels:
Assay in all cases: DTP human tumour cell line panel, 48 h
SK-MEL-2 = test system: SK-MEL-2
HL-60 = test system: HL-60
NCI-H460 = test system: NCI-H460
SNB-19 = test system: SNB-19
SK-OV-3 = test system: SK-OV-3
HCC 2998 = test system: HCC 2998
ACHN = test system: ACHN
HOP-62 = test system: HOP-62
A549 = test system: A549
RPMI-8226 = test system: RPMI-8226
SK-MEL-28 = test system: SK-MEL-28
CAKI-1 = test system: CAKI-1
SK-MEL-5 = test system: SK-MEL-5
MDA-N = test system: MDA-N
NCI-H522 = test system: NCI-H522
NCI-H226 = test system: NCI-H226
SNB-75 = test system: SNB-75
UACC-257 = test system: UACC-257
K562 = test system: K562
MDA-MB-231 = test system: MDA-MB-231
COLO 205 = test system: COLO 205
HOP-92 = test system: HOP-92
DU-145 = test system: DU-145
Malme-3M = test system: Malme-3M
PC-3 = test system: PC-3
HT-29 = test system: HT-29
EKVX = test system: EKVX
SN12C = test system: SN12C
TK-10 = test system: TK-10
UO-31 = test system: UO-31
MDA-MB-435 = test system: MDA-MB-435
HCT-15 = test system: HCT-15
MCF7 = test system: MCF7
UACC-62 = test system: UACC-62
SW-620 = test system: SW-620
NCI/ADR-RES = test system: NCI/ADR-RES
NCI-H23 = test system: NCI-H23
HCT-116 = test system: HCT-116
T47D = test system: T47D
M14 = test system: M14
U-251 = test system: U-251
KM12 = test system: KM12
Hs-578T = test system: Hs-578T
SF-539 = test system: SF-539
A498 = test system: A498
OVCAR-5 = test system: OVCAR-5
SF-268 = test system: SF-268
LOX IMVI = test system: LOX IMVI
BT-549 = test system: BT-549
CCRF-CEM = test system: CCRF-CEM
OVCAR-4 = test system: OVCAR-4
OVCAR-3 = test system: OVCAR-3
SF-295 = test system: SF-295
SR = test system: SR
RXF 393 = test system: RXF 393
MOLT-4 = test system: MOLT-4
786-0 = test system: 786-0
OVCAR-8 = test system: OVCAR-8
IGROV-1 = test system: IGROV-1

Question: With `CCCCCCCCCCCCCCCCCc1cccc(OCOCCOC)c1C(=O)O` as the compound, how does the GI50 (SK-MEL-2) read?
Answer: 19.5 µM (inactive)

Question: And the GI50 (HL-60)?
Answer: 20.9 µM (inactive)

Question: And the GI50 (NCI-H460)?
Answer: 21.5 µM (inactive)

Question: What about the GI50 (SNB-19) of the same compound?
Answer: 21.3 µM (inactive)

Question: And the GI50 (SK-OV-3)?
Answer: 14 µM (inactive)

Question: And the GI50 (HCC 2998)?
Answer: 19.1 µM (inactive)

Question: And the GI50 (ACHN)?
Answer: 19.1 µM (inactive)

Question: What about the GI50 (HOP-62) of the same compound?
Answer: 18.8 µM (inactive)

Question: And the GI50 (A549)?
Answer: 18.7 µM (inactive)

Question: What about the GI50 (RPMI-8226) of the same compound?
Answer: 24.3 µM (inactive)

Question: And the GI50 (SK-MEL-28)?
Answer: 20.1 µM (inactive)

Question: What about the GI50 (CAKI-1) of the same compound?
Answer: 19.1 µM (inactive)

Question: What about the GI50 (SK-MEL-5) of the same compound?
Answer: 20 µM (inactive)

Question: What about the GI50 (MDA-N) of the same compound?
Answer: 19.1 µM (inactive)

Question: And the GI50 (NCI-H522)?
Answer: 14.9 µM (inactive)

Question: And the GI50 (NCI-H226)?
Answer: 17 µM (inactive)

Question: And the GI50 (SNB-75)?
Answer: 15.5 µM (inactive)

Question: And the GI50 (UACC-257)?
Answer: 20.5 µM (inactive)

Question: And the GI50 (K562)?
Answer: 30.5 µM (inactive)

Question: What about the GI50 (MDA-MB-231) of the same compound?
Answer: 19.7 µM (inactive)

Question: And the GI50 (COLO 205)?
Answer: 20.6 µM (inactive)

Question: And the GI50 (HOP-92)?
Answer: 18.9 µM (inactive)

Question: What about the GI50 (DU-145) of the same compound?
Answer: 17.7 µM (inactive)

Question: What about the GI50 (Malme-3M) of the same compound?
Answer: 10.2 µM (inactive)

Question: And the GI50 (PC-3)?
Answer: 17.1 µM (inactive)

Question: What about the GI50 (HT-29) of the same compound?
Answer: 17.1 µM (inactive)

Question: What about the GI50 (EKVX) of the same compound?
Answer: 18.9 µM (inactive)

Question: What about the GI50 (SN12C) of the same compound?
Answer: 22.4 µM (inactive)

Question: And the GI50 (TK-10)?
Answer: 18.9 µM (inactive)

Question: What about the GI50 (UO-31) of the same compound?
Answer: 17 µM (inactive)

Question: And the GI50 (MDA-MB-435)?
Answer: 19.2 µM (inactive)

Question: And the GI50 (HCT-15)?
Answer: 19.3 µM

Question: What about the GI50 (MCF7) of the same compound?
Answer: 21.7 µM (inactive)

Question: What about the GI50 (UACC-62) of the same compound?
Answer: 17.7 µM (inactive)

Question: And the GI50 (SW-620)?
Answer: 20.3 µM (inactive)

Question: And the GI50 (NCI/ADR-RES)?
Answer: 14.5 µM (inactive)

Question: And the GI50 (NCI-H23)?
Answer: 15.2 µM (inactive)

Question: And the GI50 (HCT-116)?
Answer: 19.4 µM (inactive)

Question: What about the GI50 (T47D) of the same compound?
Answer: 16.5 µM (inactive)

Question: What about the GI50 (M14) of the same compound?
Answer: 16.5 µM (inactive)

Question: And the GI50 (U-251)?
Answer: 20.3 µM (inactive)

Question: And the GI50 (KM12)?
Answer: 17.1 µM (inactive)

Question: What about the GI50 (Hs-578T) of the same compound?
Answer: 18.6 µM (inactive)

Question: And the GI50 (SF-539)?
Answer: 16.2 µM (inactive)

Question: What about the GI50 (A498) of the same compound?
Answer: 17.8 µM (inactive)

Question: What about the GI50 (OVCAR-5) of the same compound?
Answer: 16.8 µM (inactive)

Question: And the GI50 (SF-268)?
Answer: 17.2 µM (inactive)

Question: What about the GI50 (LOX IMVI) of the same compound?
Answer: 24.6 µM (inactive)

Question: What about the GI50 (BT-549) of the same compound?
Answer: 16.9 µM (inactive)

Question: What about the GI50 (CCRF-CEM) of the same compound?
Answer: 26.7 µM (inactive)

Question: And the GI50 (OVCAR-4)?
Answer: 19.5 µM (inactive)

Question: And the GI50 (OVCAR-3)?
Answer: 16.9 µM (inactive)

Question: What about the GI50 (SF-295) of the same compound?
Answer: 18.1 µM (inactive)

Question: And the GI50 (SR)?
Answer: 25.4 µM (inactive)

Question: And the GI50 (RXF 393)?
Answer: 17.9 µM (inactive)

Question: What about the GI50 (MOLT-4) of the same compound?
Answer: 21.5 µM (inactive)

Question: And the GI50 (786-0)?
Answer: 18.6 µM (inactive)

Question: What about the GI50 (OVCAR-8) of the same compound?
Answer: 16.4 µM (inactive)

Question: And the GI50 (IGROV-1)?
Answer: 16.9 µM (inactive)

Question: Which results are given for `CC1OC(OC2C[C@](O)(C(=O)CBr)Cc3c(O)c4c(c(O)c32)C(=O)c2ccccc2C4=O)C(F)C(O)C1O` (some centres not stated)?
Answer: GI50 (SK-MEL-2): 29.6 µM (inactive); GI50 (HL-60): 0.838 µM (active); GI50 (NCI-H460): 0.783 µM (active); GI50 (SNB-19): 5.86 µM (inactive); GI50 (SK-OV-3): 33.6 µM (inactive); GI50 (HCC 2998): 36.3 µM (inactive); GI50 (ACHN): 1.53 µM (inactive); GI50 (HOP-62): 3.72 µM (inactive); GI50 (A549): 4.67 µM (inactive); GI50 (RPMI-8226): 1.46 µM (inactive); GI50 (SK-MEL-28): 23.8 µM (inactive); GI50 (CAKI-1): 2.71 µM (inactive); GI50 (SK-MEL-5): 8.95 µM (inactive); GI50 (MDA-N): 16.3 µM (inactive); GI50 (NCI-H522): 6.18 µM (inactive); GI50 (NCI-H226): 12.7 µM (inactive); GI50 (SNB-75): 8.83 µM (inactive); GI50 (UACC-257): 13.3 µM (inactive); GI50 (K562): 2.56 µM (inactive); GI50 (MDA-MB-231): 9.89 µM (inactive); GI50 (COLO 205): 9.73 µM (inactive); GI50 (HOP-92): 4.21 µM (inactive); GI50 (DU-145): 5.28 µM (inactive); GI50 (Malme-3M): 3.66 µM (inactive); GI50 (PC-3): 13.4 µM (inactive); GI50 (HT-29): 12.1 µM (inactive); GI50 (EKVX): 46.6 µM (inactive); GI50 (SN12C): 6.92 µM (inactive); GI50 (TK-10): 20.3 µM (inactive); GI50 (UO-31): 1.22 µM (inactive); GI50 (MDA-MB-435): 14.1 µM (inactive); GI50 (HCT-15): 5.86 µM; GI50 (MCF7): 1.19 µM (inactive); GI50 (UACC-62): 10.8 µM (inactive); GI50 (SW-620): 2.69 µM (inactive); GI50 (NCI/ADR-RES): 15.8 µM (inactive); GI50 (NCI-H23): 5.58 µM (inactive); GI50 (HCT-116): 5.83 µM (inactive); GI50 (T47D): 5.35 µM (inactive); GI50 (M14): 7.14 µM (inactive); GI50 (U-251): 5.83 µM (inactive); GI50 (KM12): 19.6 µM (inactive); GI50 (Hs-578T): 30 µM (inactive); GI50 (SF-539): 4.54 µM (inactive); GI50 (A498): 11.8 µM (inactive); GI50 (OVCAR-5): 13.5 µM (inactive); GI50 (SF-268): 13.5 µM (inactive); GI50 (LOX IMVI): 10 µM (inactive); GI50 (BT-549): 24.7 µM (inactive); GI50 (CCRF-CEM): 0.776 µM (active); GI50 (OVCAR-4): 23.6 µM (inactive); GI50 (OVCAR-3): 13.9 µM (inactive); GI50 (SF-295): 3.54 µM (inactive); GI50 (SR): 0.426 µM (active); GI50 (RXF 393): 18.5 µM (inactive); GI50 (786-0): 3.66 µM (inactive); GI50 (OVCAR-8): 16.1 µM (inactive); GI50 (IGROV-1): 7.89 µM (inactive)
